Like-named read-outs stand apart in the source and are kept apart here. Where a SMILES comes first, the peptide text is derived from it. [ ]: non-standard residue; d: D form. Phe(4-NO2) = N[C@@H](Cc1ccc([N+](=O)[O-])cc1)C(=O)O; Bip = N[C@@H](Cc1ccc(-c2ccccc2)cc1)C(=O)O; Dip = N[C@H](C(=O)O)C(c1ccccc1)c1ccccc1; Phe(4-NH2) = Nc1ccc(C[C@H](N)C(=O)O)cc1; 1Nal = N[C@@H](Cc1cccc2ccccc12)C(=O)O; 2Nal = N[C@@H](Cc1ccc2ccccc2c1)C(=O)O; Dmt = Cc1cc(O)cc(C)c1C[C@H](N)C(=O)O; Phg = N[C@H](C(=O)O)c1ccccc1
Tests used:
human mu receptor = target: T1, human mu receptor (Homo sapiens, UniProt P35372); assay: Calcium mobilization, mu opioid receptor; assay type: cell-based; conditions: for mu pEC50 (CL95%): Table 2 series, CHO cells coexpressing human mu receptor and Gαqi5, Fluo-4 AM, 37 °C, mean of at least three experiments in duplicate, CL95% in brackets; for pEC50_mu: molecular formula strings CSV, repeats calcium mobilization values of Tables 1-3; for activation at 10 µM: read-out: mu effect at 10 μM (crc incomplete), Table 2 series, mean ± SEM; for activation at 10 µM / Emax: percent over the baseline fluorescence, SEM; for Emax: mean ± SEM of at least three experiments in duplicate
T1 construct: expressed in transfected cells; host or cells: CHO cells stably coexpressing the receptor and chimeric Gαqi5

human NOP receptor = target: T2, human NOP receptor (Homo sapiens, UniProt P41146); assay: Calcium mobilization, NOP receptor; assay type: cell-based; conditions: for Emax: percent over the baseline fluorescence, mean ± SEM of at least three experiments in duplicate, SEM; for NOP pEC50 (CL95%) / NOP/mu CR (concentration ratio): Table 2 series; for NOP pEC50 (CL95%): CHO cells coexpressing human NOP and Gαqi5, Fluo-4 AM, 37 °C, mean of at least three experiments in duplicate, CL95% in brackets; for NOP/mu CR (concentration ratio): calcium mobilization, NOP versus mu
T2 construct: expressed in transfected cells; host or cells: CHO cells stably coexpressing the receptor and chimeric Gαqi5
Experimental: CHO cells stably coexpressing the human NOP or kappa or the mu receptor and the C-terminally modified Gαqi5 and CHO cells coexpressing the delta receptor and the GαqG66Di5 protein were generated and cultured as described previously.[45],[46] Cells were maintained in Dulbecco’s modified Eagle’s medium/nutrient mixture F-12 (DEMEM/F-12) supplemented with 10% FBS, 100 U/mL penicillin and 100 μg/mL streptomycin, 100 μg/mL hygromicin B, and 200 μg/mL G418 and cultured at 37 °C in 5% CO2 humidified air. Cells were seeded at a density of 50,000 cells/well into 96-well black, clear-bottom plates. The following day, the cells were incubated with Hanks’ balanced salt solution (HBSS) supplemented with 2.5 mM probenecid, 3 μM of the calcium-sensitive fluorescent dye Fluo-4 AM, and 0.01% pluronic acid for 30 min at 37 °C. After that time, the loading solution was aspirated and 100 μL/well of HBSS supplemented with 20 mM HEPES, 2.5 mM probenecid, and 500 μM brilliant black was added. Serial dilutions were carried out in HBSS/HEPES (20 mM) buffer (containing 0.02% BSA fraction V). After placing both plates (cell culture and master plate) into the fluorometric imaging plate reader FlexStation II (Molecular Devices, Sunnyvale, CA), fluorescence changes were measured. On-line additions were carried out in a volume of 50 μL/well. To facilitate drug diffusion into the wells, the present studies were performed at 37 °C. Maximum change in fluorescence, expressed as percent over the baseline fluorescence, was used to determine agonist response.
The pharmacological terminology adopted in this paper is consistent with IUPHAR recommendations.[59] All data are expressed as the mean ± standard error of the mean (SEM) of at least three experiments performed in duplicate. […] Concentration-response curves to agonists were fitted to the classical four-parameter logistic nonlinear regression model:
Effect = Baseline + (Emax – Baseline)/(1 + 10^(LogEC50 – Log[compound]) × Hillslope). Curve fitting was performed using PRISM 6.0 (GraphPad Software Inc., San Diego).

[1] = read-out: NOP Emax ± S.E.M., Table 2 series
[2] = read-out: mu Emax ± S.E.M., Table 2 series
[3] = read-out: mu Emax ± S.E.M., Table 3 series
[4] = read-out: NOP Emax ± S.E.M., Table 3 series

T2 sequence (P41146 whole entry): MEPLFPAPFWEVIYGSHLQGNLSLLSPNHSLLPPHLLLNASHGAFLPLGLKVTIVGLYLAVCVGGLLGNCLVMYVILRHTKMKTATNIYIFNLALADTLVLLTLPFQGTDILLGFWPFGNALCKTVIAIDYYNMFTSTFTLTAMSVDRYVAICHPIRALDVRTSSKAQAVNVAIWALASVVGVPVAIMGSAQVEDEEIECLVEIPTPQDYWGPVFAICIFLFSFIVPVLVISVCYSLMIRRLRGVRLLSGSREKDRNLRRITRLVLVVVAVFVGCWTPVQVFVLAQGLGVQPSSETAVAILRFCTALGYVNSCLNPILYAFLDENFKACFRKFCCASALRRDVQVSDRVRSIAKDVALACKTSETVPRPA
T1 sequence (P35372 whole entry): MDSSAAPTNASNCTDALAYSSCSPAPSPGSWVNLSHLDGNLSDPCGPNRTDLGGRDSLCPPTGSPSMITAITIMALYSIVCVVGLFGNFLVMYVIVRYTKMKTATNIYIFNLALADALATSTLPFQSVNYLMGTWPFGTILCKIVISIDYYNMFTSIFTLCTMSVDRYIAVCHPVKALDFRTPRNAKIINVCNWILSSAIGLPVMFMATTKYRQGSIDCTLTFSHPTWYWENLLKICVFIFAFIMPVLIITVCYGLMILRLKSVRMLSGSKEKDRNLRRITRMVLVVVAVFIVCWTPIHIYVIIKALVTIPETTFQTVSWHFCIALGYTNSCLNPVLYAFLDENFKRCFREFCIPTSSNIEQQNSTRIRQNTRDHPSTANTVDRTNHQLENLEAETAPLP

SMILES | mu pEC50 (CL95%) (human mu receptor) | pEC50_mu (human mu receptor) | activation at 10 µM (human mu receptor) | Emax (human NOP receptor; [1]) | Emax (human mu receptor; [2]) | NOP pEC50 (CL95%) (human NOP receptor) | NOP/mu CR (concentration ratio) (human NOP receptor) | Emax (human mu receptor; [3]) | Emax (human NOP receptor; [4])
C[C@H](NC(=O)CNC(=O)[C@H](Cc1ccc([N+](=O)[O-])cc1)NC(=O)[C@H](Cc1ccccc1)NC(=O)CNC(=O)CNC(=O)[C@@H](N)Cc1ccc(O)cc1)C(=O)N[C@@H](CCCNC(=N)N)C(=O)N[C@@H](CCCCN)C(=O)N[C@@H](CO)C(=O)N[C@@H](C)C(=O)N[C@@H](CCCNC(=N)N)C(=O)N[C@@H](CCCCN)C(N)=O [Compound 22, [Tyr^1,(pNO2)Phe^5]N/OFQ(1-13)-NH2] (H-YGGF[Phe(4-NO2)]GARKSARK-NH2) | crc incomplete; 10 μM: 192 ± 64 | crc incomplete | 192 ± 64% | 305 ± 22% |  |  |  |  | 
C[C@H](NC(=O)CNC(=O)[C@@H](NC(=O)[C@H](Cc1ccccc1)NC(=O)CNC(=O)CNC(=O)[C@@H](N)Cc1ccc(O)cc1)C(c1ccccc1)c1ccccc1)C(=O)N[C@@H](CCCNC(=N)N)C(=O)N[C@@H](CCCCN)C(=O)N[C@@H](CO)C(=O)N[C@@H](C)C(=O)N[C@@H](CCCNC(=N)N)C(=O)N[C@@H](CCCCN)C(N)=O [Compound 23, [Tyr^1,Dip^5]N/OFQ(1-13)-NH2] (H-YGGF[Dip]GARKSARK-NH2) | 6.78 (6.28–7.27) |  |  | 240 ± 26% | 331 ± 32% | 6.61 (6.13–7.09) | 1.48 |  | 
C[C@H](NC(=O)CNC(=O)[C@H](Cc1ccc(-c2ccccc2)cc1)NC(=O)[C@H](Cc1ccccc1)NC(=O)CNC(=O)CNC(=O)[C@@H](N)Cc1ccc(O)cc1)C(=O)N[C@@H](CCCNC(=N)N)C(=O)N[C@@H](CCCCN)C(=O)N[C@@H](CO)C(=O)N[C@@H](C)C(=O)N[C@@H](CCCNC(=N)N)C(=O)N[C@@H](CCCCN)C(N)=O [Compound 24, [Tyr^1,Bip^5]N/OFQ(1-13)-NH2] (H-YGGF[Bip]GARKSARK-NH2) | crc incomplete; 10 μM: 151 ± 66 | crc incomplete | 151 ± 66% | 272 ± 29% |  | 6.93 (6.63–7.22) | 0.15 |  | 
C[C@H](NC(=O)CNC(=O)[C@H](Cc1cccc2ccccc12)NC(=O)[C@H](Cc1ccccc1)NC(=O)CNC(=O)CNC(=O)[C@@H](N)Cc1ccc(O)cc1)C(=O)N[C@@H](CCCNC(=N)N)C(=O)N[C@@H](CCCCN)C(=O)N[C@@H](CO)C(=O)N[C@@H](C)C(=O)N[C@@H](CCCNC(=N)N)C(=O)N[C@@H](CCCCN)C(N)=O [Compound 25, [Tyr^1,1Nal^5]N/OFQ(1-13)-NH2] (H-YGGF[1Nal]GARKSARK-NH2) | 6.08 (5.67–6.49) |  |  | 245 ± 16% | 319 ± 31% | 7.17 (6.82–7.52) | 0.08 |  | 
C[C@H](NC(=O)CNC(=O)[C@H](Cc1ccc2ccccc2c1)NC(=O)[C@H](Cc1ccccc1)NC(=O)CNC(=O)CNC(=O)[C@@H](N)Cc1ccc(O)cc1)C(=O)N[C@@H](CCCNC(=N)N)C(=O)N[C@@H](CCCCN)C(=O)N[C@@H](CO)C(=O)N[C@@H](C)C(=O)N[C@@H](CCCNC(=N)N)C(=O)N[C@@H](CCCCN)C(N)=O [Compound 26, [Tyr^1,2Nal^5]N/OFQ(1-13)-NH2] (H-YGGF[2Nal]GARKSARK-NH2) | crc incomplete; 10 μM: 244 ± 10 | crc incomplete | 244 ± 10% | 266 ± 15% |  | 6.82 (6.60–7.04) | 0.19 |  | 
C[C@H](NC(=O)CNC(=O)[C@H](Cc1ccc(N)cc1)NC(=O)[C@H](Cc1ccccc1)NC(=O)CNC(=O)CNC(=O)[C@@H](N)Cc1ccc(O)cc1)C(=O)N[C@@H](CCCNC(=N)N)C(=O)N[C@@H](CCCCN)C(=O)N[C@@H](CO)C(=O)N[C@@H](C)C(=O)N[C@@H](CCCNC(=N)N)C(=O)N[C@@H](CCCCN)C(N)=O [Compound 27, [Tyr^1,(pNH2)Phe^5]N/OFQ(1-13)-NH2] (H-YGGF[Phe(4-NH2)]GARKSARK-NH2) |  |  |  | 274 ± 15% | 329 ± 37% |  |  |  | 
Cc1cc(O)cc(C)c1C[C@H](NC(=O)[C@H](Cc1ccccc1)NC(=O)CNC(=O)CNC(=O)[C@@H](N)Cc1ccc(O)cc1)C(=O)NCC(=O)N[C@@H](C)C(=O)N[C@@H](CCCNC(=N)N)C(=O)N[C@@H](CCCCN)C(=O)N[C@@H](CO)C(=O)N[C@@H](C)C(=O)N[C@@H](CCCNC(=N)N)C(=O)N[C@@H](CCCCN)C(N)=O [Compound 28, [Tyr^1,Dmt^5]N/OFQ(1-13)-NH2] (H-YGGF[Dmt]GARKSARK-NH2) |  |  |  | 251 ± 22% | 301 ± 35% |  |  |  | 
Cc1cc(O)cc(C)c1C[C@H](N)C(=O)NCC(=O)NCC(=O)N[C@@H](Cc1ccccc1)C(=O)N[C@H](C(=O)NCC(=O)N[C@@H](C)C(=O)N[C@@H](CCCNC(=N)N)C(=O)N[C@@H](CCCCN)C(=O)N[C@@H](CO)C(=O)N[C@@H](C)C(=O)N[C@@H](CCCNC(=N)N)C(=O)N[C@@H](CCCCN)C(N)=O)[C@@H](C)O [Compound 29, [Dmt^1]N/OFQ(1-13)-NH2, reference compound] |  |  |  |  |  |  |  | 311 ± 20% | 294 ± 22%
Cc1cc(O)cc(C)c1C[C@H](N)C(=O)NCC(=O)NCC(=O)N[C@@H](Cc1ccccc1)C(=O)N[C@@H](Cc1ccc(O)cc1)C(=O)NCC(=O)N[C@@H](C)C(=O)N[C@@H](CCCNC(=N)N)C(=O)N[C@@H](CCCCN)C(=O)N[C@@H](CO)C(=O)N[C@@H](C)C(=O)N[C@@H](CCCNC(=N)N)C(=O)N[C@@H](CCCCN)C(N)=O [Compound 30, [Dmt^1,Tyr^5]N/OFQ(1-13)-NH2] (H-[Dmt]GGFYGARKSARK-NH2) |  |  |  |  |  |  |  | 410 ± 25% | 304 ± 21%
Cc1cc(O)cc(C)c1C[C@H](N)C(=O)NCC(=O)NCC(=O)N[C@@H](Cc1ccccc1)C(=O)N[C@@H](Cc1ccccc1)C(=O)NCC(=O)N[C@@H](C)C(=O)N[C@@H](CCCNC(=N)N)C(=O)N[C@@H](CCCCN)C(=O)N[C@@H](CO)C(=O)N[C@@H](C)C(=O)N[C@@H](CCCNC(=N)N)C(=O)N[C@@H](CCCCN)C(N)=O [Compound 31, [Dmt^1,Phe^5]N/OFQ(1-13)-NH2] (H-[Dmt]GGFFGARKSARK-NH2) |  |  |  |  |  |  |  | 335 ± 22% | 277 ± 28%
Cc1cc(O)cc(C)c1C[C@H](N)C(=O)NCC(=O)NCC(=O)N[C@@H](Cc1ccccc1)C(=O)N[C@H](C(=O)NCC(=O)N[C@@H](C)C(=O)N[C@@H](CCCNC(=N)N)C(=O)N[C@@H](CCCCN)C(=O)N[C@@H](CO)C(=O)N[C@@H](C)C(=O)N[C@@H](CCCNC(=N)N)C(=O)N[C@@H](CCCCN)C(N)=O)c1ccccc1 [Compound 32, [Dmt^1,Phg^5]N/OFQ(1-13)-NH2] (H-[Dmt]GGF[Phg]GARKSARK-NH2) |  |  |  |  |  |  |  | 339 ± 28% | 282 ± 12%
Cc1cc(O)cc(C)c1C[C@H](N)C(=O)NCC(=O)NCC(=O)N[C@@H](Cc1ccccc1)C(=O)N[C@@H](Cc1cccc2ccccc12)C(=O)NCC(=O)N[C@@H](C)C(=O)N[C@@H](CCCNC(=N)N)C(=O)N[C@@H](CCCCN)C(=O)N[C@@H](CO)C(=O)N[C@@H](C)C(=O)N[C@@H](CCCNC(=N)N)C(=O)N[C@@H](CCCCN)C(N)=O [Compound 33, [Dmt^1,1Nal^5]N/OFQ(1-13)-NH2] (H-[Dmt]GGF[1Nal]GARKSARK-NH2) |  |  |  |  |  |  |  | 349 ± 20% | 286 ± 19%
Cc1cc(O)cc(C)c1C[C@H](N)C(=O)NCC(=O)NCC(=O)N[C@@H](Cc1ccccc1)C(=O)N[C@@H](Cc1ccc(N)cc1)C(=O)NCC(=O)N[C@@H](C)C(=O)N[C@@H](CCCNC(=N)N)C(=O)N[C@@H](CCCCN)C(=O)N[C@@H](CO)C(=O)N[C@@H](C)C(=O)N[C@@H](CCCNC(=N)N)C(=O)N[C@@H](CCCCN)C(N)=O [Compound 34, [Dmt^1,(pNH2)Phe^5]N/OFQ(1-13)-NH2] (H-[Dmt]GGF[Phe(4-NH2)]GARKSARK-NH2) |  |  |  |  |  |  |  | 358 ± 15% | 258 ± 20%
